From ChEMBL document CHEMBL5096194, “Development of Alectinib-Based PROTACs as Novel Potent Degraders of Anaplastic Lymphoma Kinase (ALK)” (J Med Chem, 2021)
Calls of active or inactive are those of the source. The rule behind the calls is not given here.

Tests used:
[1] = molecular target: T1, Protein cereblon/ALK tyrosine kinase receptor/Nucleophosmin (Homo sapiens) (UniProt Q9UM73+P06748+Q96SW2); assay: Protac activity at CRBN/NPM-ALK in human KARPAS-299 cells assessed as induction of NPM-ALK fusion protein degradation at 2 uM incubated for 24 hrs by Western blot analysis; type: cell-based
T1 sequence (P06748 whole entry partner, the tested form may be a part): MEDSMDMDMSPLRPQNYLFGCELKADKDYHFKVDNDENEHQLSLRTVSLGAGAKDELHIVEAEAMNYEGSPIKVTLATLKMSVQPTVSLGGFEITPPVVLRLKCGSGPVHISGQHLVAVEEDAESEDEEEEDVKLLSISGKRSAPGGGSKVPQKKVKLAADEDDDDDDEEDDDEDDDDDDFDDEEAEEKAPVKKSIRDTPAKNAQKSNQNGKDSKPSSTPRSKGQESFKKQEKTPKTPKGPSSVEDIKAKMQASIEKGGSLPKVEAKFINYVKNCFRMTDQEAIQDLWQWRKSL
T1 sequence (Q96SW2 whole entry partner, the tested form may be a part): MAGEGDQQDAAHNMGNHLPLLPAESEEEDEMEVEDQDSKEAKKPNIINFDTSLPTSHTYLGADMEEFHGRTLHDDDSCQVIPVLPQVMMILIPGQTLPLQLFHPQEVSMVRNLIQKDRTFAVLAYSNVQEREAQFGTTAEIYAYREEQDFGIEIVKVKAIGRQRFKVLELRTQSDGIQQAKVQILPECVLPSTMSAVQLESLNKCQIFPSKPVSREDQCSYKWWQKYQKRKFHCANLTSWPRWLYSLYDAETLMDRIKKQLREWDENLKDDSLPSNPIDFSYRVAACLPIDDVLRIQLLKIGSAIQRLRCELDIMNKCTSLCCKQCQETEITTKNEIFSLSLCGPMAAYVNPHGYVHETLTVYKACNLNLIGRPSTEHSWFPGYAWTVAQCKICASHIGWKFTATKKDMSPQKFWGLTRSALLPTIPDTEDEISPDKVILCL
T1 sequence (Q9UM73 19-1620 limits assumed): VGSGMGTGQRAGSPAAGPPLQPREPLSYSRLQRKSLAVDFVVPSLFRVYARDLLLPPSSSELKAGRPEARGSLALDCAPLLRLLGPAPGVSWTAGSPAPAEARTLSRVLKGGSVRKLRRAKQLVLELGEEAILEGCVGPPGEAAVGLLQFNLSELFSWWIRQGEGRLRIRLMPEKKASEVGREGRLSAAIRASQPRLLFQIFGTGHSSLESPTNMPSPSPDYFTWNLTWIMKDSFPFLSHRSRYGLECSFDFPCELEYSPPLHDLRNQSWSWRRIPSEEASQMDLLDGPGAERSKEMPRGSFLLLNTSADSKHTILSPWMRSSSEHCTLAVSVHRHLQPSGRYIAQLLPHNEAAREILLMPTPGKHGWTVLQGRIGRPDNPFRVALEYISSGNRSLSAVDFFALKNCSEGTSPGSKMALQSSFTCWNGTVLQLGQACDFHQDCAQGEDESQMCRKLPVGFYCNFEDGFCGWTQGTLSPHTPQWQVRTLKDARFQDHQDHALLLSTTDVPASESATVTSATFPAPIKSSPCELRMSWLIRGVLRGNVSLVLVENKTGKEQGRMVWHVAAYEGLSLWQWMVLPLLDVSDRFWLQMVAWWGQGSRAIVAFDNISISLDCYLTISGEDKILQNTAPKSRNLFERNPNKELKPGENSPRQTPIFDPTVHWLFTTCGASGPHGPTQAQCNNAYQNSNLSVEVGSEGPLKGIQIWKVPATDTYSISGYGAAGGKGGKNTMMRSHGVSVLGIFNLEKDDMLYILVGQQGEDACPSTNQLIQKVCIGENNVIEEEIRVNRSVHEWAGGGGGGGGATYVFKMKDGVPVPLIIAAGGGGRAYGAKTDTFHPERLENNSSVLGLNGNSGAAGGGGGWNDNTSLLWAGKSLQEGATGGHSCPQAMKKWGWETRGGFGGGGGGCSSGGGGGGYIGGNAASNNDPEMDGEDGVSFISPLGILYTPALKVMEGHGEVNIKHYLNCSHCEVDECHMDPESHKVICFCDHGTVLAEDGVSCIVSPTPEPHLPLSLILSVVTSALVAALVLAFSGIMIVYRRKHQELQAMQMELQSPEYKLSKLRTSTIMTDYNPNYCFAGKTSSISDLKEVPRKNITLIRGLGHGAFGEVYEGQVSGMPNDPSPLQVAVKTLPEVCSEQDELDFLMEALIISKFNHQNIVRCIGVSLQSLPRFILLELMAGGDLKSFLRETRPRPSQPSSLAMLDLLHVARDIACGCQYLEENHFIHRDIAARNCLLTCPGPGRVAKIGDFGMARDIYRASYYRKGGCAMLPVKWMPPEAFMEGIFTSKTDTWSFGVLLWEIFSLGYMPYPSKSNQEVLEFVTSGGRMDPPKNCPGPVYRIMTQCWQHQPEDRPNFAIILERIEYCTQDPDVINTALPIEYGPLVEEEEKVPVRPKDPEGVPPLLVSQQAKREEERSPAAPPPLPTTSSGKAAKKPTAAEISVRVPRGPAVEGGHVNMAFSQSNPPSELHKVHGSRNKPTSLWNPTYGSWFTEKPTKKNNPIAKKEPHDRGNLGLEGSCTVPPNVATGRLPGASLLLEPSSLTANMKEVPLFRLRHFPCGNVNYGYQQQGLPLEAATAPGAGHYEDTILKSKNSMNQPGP

[2] = molecular target: T2, Protein cereblon/ALK tyrosine kinase receptor/Echinoderm microtubule-associated protein-like 4 (Homo sapiens) (UniProt Q9UM73+Q9HC35+Q96SW2); assay: Protac activity at CRBN/EML4-ALK in human NCI-H3122 cells assessed as induction of EML4-ALK fusion protein degradation at 1 uM incubated for 16 hrs by Western blot analysis relative to control; type: cell-based
T2 sequence (Q96SW2 whole entry partner, the tested form may be a part): as the sequence (Q96SW2 whole entry partner, the tested form may be a part) above
T2 sequence (Q9HC35 whole entry partner, the tested form may be a part): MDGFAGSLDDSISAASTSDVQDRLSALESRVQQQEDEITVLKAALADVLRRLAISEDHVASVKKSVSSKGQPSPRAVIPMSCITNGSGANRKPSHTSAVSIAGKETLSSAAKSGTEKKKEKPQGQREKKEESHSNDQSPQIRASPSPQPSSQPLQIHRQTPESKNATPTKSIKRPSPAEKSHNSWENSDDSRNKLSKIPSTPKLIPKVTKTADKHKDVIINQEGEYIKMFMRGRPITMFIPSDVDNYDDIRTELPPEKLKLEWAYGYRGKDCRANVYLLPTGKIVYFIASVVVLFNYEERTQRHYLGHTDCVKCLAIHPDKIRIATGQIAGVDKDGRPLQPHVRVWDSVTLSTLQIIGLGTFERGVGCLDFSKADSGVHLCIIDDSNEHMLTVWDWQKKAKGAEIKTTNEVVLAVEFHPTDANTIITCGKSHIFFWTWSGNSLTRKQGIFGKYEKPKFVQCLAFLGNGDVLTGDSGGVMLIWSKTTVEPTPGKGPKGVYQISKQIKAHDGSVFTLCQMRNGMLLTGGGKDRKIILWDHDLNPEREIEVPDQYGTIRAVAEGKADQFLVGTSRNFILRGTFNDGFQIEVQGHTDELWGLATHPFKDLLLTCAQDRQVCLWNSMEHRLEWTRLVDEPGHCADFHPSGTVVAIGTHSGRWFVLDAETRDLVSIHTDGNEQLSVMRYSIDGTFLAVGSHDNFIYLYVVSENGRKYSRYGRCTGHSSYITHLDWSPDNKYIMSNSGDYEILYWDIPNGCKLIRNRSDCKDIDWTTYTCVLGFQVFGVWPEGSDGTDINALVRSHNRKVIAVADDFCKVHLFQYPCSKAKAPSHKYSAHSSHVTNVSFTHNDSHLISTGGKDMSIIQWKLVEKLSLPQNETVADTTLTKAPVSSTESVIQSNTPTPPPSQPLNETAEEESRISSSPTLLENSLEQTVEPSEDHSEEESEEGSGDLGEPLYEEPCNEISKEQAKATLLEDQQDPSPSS
T2 sequence (Q9UM73 19-1620 limits assumed): as the sequence (Q9UM73 19-1620 limits assumed) above

[3] = Cmax in Sprague-Dawley rat at 50 mg/kg, ip administered as single dose measured for 24 hrs by LC-MS/MS analysis; type: ADME, organism-based; set-up: dose 50 mg/kg, time 24 hrs, route ip; conditions: in vivo
KARPAS-299 [4] = assay: Antitumor activity against human KARPAS-299 cells xenografted in NCG mouse assessed as reduction in tumor weight at 5 to 10 mg/kg, iv administered once every day for 3 weeks and measured every 3 days; type: functional, organism-based; conditions: dose 5-10 mg/kg
BaF3 [5] = assay: Antiproliferative activity against crizotinib-resistant mouse BaF3 cells expressing EML-ALK L1152R mutant assessed as cell viability at 1 uM incubated for 72 hrs by Celltitre-Glo assay relative to control; type: functional; conditions: read-out: Activity
[6] = Toxicity in NCG mouse xenografted with human KARPAS-299 cells assessed as heart damage at 10 mg/kg, iv administered once every day for 3 weeks by H & E staining based analysis; type: organism-based; conditions: in vivo, 504 h
[7] = AUC (0 to t) in Sprague-Dawley rat at 1 mg/kg, iv administered as single dose measured for 24 hrs by LC-MS/MS analysis; type: ADME, organism-based; set-up: time 24 hrs, dose 1 mg/kg, route iv; conditions: in vivo
KARPAS-299 [8] = assay: Antitumor activity against human KARPAS-299 cells xenografted in NCG mouse assessed as tumor growth inhibition at 10 mg/kg, iv administered once every day for 3 weeks and measured every 3 days relative to control; type: functional; conditions: KARPAS-299, 504 h, read-out: TGI
KARPAS-299 [9] = assay: Downregulation of SOCS3 protein expression in human KARPAS-299 cells at 1 uM incubated for 24 hrs by iTRAQ proteomics analysis; type: functional, cell-based
KARPAS-299 [10] = assay: Antitumor activity against human KARPAS-299 cells xenografted in NCG mouse assessed as increase in ALK protein degradation at 25 to 50 mg/kg, ip administered once every day for 3 weeks; type: functional, organism-based; conditions: dose 25-50 mg/kg
KARPAS-299 [11] = assay: Downregulation of jun-B protein expression in human KARPAS-299 cells at 1 uM incubated for 24 hrs by iTRAQ proteomics analysis; type: functional, cell-based
KARPAS-299 [12] = assay: Antitumor activity against human KARPAS-299 cells xenografted in NCG mouse assessed as increase in ALK protein degradation at 5 to 10 mg/kg, iv administered once every day for 3 weeks; type: functional, organism-based; conditions: dose 5-10 mg/kg
BaF3 [13] = assay: Antiproliferative activity against crizotinib-resistant mouse BaF3 cells expressing EML-ALK L1196M mutant assessed as cell viability at 1 uM incubated for 72 hrs by Celltitre-Glo assay relative to control; type: functional; conditions: read-out: Activity
[14] = Half life in Sprague-Dawley rat at 1 mg/kg, iv administered as single dose measured for 24 hrs by LC-MS/MS analysis; type: ADME, organism-based; conditions: in vivo
[15] = Observed oral clearance in Sprague-Dawley rat at 50 mg/kg, ip administered as single dose measured for 24 hrs by LC-MS/MS analysis; type: ADME, organism-based; conditions: in vivo
[16] = molecular target: Signal transducer and activator of transcription 3 (Homo sapiens) (UniProt P40763); assay: Inhibition of STAT3 phosphorylation in human KARPAS-299 cells as 100 nM measured after 24 hrs by Western blot analysis relative to control; type: cell-based
Signal transducer and activator of transcription 3 (Homo sapiens), sequence (P40763 whole entry): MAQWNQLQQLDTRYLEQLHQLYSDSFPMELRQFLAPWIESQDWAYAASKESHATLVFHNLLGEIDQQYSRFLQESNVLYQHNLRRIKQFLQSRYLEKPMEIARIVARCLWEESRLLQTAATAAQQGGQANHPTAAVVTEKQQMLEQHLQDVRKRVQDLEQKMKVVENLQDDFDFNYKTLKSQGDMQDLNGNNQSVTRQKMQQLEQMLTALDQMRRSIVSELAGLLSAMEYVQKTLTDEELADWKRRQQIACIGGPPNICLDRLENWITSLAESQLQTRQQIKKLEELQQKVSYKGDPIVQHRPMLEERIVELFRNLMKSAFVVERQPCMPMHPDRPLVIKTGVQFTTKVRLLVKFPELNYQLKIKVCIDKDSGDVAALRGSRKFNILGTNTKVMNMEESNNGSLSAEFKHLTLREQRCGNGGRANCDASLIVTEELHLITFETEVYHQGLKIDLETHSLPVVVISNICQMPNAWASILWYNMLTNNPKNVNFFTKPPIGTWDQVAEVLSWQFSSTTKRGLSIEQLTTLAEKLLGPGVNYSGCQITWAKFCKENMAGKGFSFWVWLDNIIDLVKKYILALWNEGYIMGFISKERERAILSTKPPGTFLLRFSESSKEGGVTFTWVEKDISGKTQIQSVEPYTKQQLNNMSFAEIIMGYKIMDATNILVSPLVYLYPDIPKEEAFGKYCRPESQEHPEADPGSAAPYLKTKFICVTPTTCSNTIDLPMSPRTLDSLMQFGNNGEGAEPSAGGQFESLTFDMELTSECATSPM

BaF3 [17] = assay: Antiproliferative activity against crizotinib-resistant mouse BaF3 cells expressing EML-ALK G1202R mutant assessed as cell viability at 1 uM incubated for 72 hrs by Celltitre-Glo assay relative to control; type: functional; conditions: read-out: Activity
[18] = molecular target: T3, ALK tyrosine kinase receptor (Homo sapiens, UniProt Q9UM73); assay: Inhibition of ALK phosphorylation in human KARPAS-299 cells at 0.01 to 1 uM measured after 24 hrs by Western blot analysis; type: cell-based; conditions: dose 0.01-1 µM
Target sequence in this assay (Q9UM73 19-1620 limits assumed): as the sequence (Q9UM73 19-1620 limits assumed) above

KARPAS-299 [19] = assay: Downregulation of SESN2 protein expression in human KARPAS-299 cells at 1 uM incubated for 24 hrs by iTRAQ proteomics analysis; type: functional, cell-based
NCI-H3122 = assay: Antiproliferative activity against ALK-positive human NCI-H3122 cells assessed as inhibition of cell proliferation measured after 72 hrs by MTT assay; type: functional, cell-based; conditions: NCI-H3122, 72 h
[20] = In vivo induction of degradation of ALK in human KARPAS-299 cells xenografted in NCG mouse assessed as reduction in ALK protein expression in tumor at 10 mg/kg, iv administered as single dose measured after 12 hrs by immunoblot analysis relative to control; type: functional; set-up: scale not given: the % may be the effect or the level left
[21] = MRTlast in Sprague-Dawley rat at 50 mg/kg, ip administered as single dose measured for 24 hrs by LC-MS/MS analysis; type: ADME, organism-based; conditions: in vivo
[22] = molecular target: T3, ALK tyrosine kinase receptor
[23] = molecular target: T1, Protein cereblon/ALK tyrosine kinase receptor/Nucleophosmin (Homo sapiens); assay: Protac activity at CRBN/NPM-ALK in human KARPAS-299 cells assessed as induction of NPM-ALK fusion protein degradation at 1 uM incubated for 24 hrs followed by compound washout and measured after 24 hrs by Western blot analysis; type: cell-based
[24] = Volume of distribution in Sprague-Dawley rat at 50 mg/kg, ip administered as single dose measured for 24 hrs by LC-MS/MS analysis; type: ADME, organism-based; conditions: in vivo
[25] = molecular target: T2, Protein cereblon/ALK tyrosine kinase receptor/Echinoderm microtubule-associated protein-like 4 (Homo sapiens); assay: Protac activity at CRBN/EML4-ALK in human NCI-H3122 cells assessed as induction of EML4-ALK fusion protein degradation at 0.1 uM incubated for 16 hrs by Western blot analysis relative to control; type: cell-based
KARPAS-299 [26] = assay: Downregulation of ALK protein expression in human KARPAS-299 cells at 1 uM incubated for 24 hrs by iTRAQ proteomics analysis; type: functional, cell-based
[27] = Tmax in Sprague-Dawley rat at 50 mg/kg, ip administered as single dose measured for 24 hrs by LC-MS/MS analysis; type: ADME, organism-based; conditions: in vivo
[28] = Toxicity in NCG mouse xenografted with human KARPAS-299 cells assessed as spleen damage at 10 mg/kg, iv administered once every day for 3 weeks by H and E staining based analysis; type: organism-based; conditions: in vivo, 504 h
[29] = molecular target: T2, Protein cereblon/ALK tyrosine kinase receptor/Echinoderm microtubule-associated protein-like 4 (Homo sapiens); assay: Protac activity at CRBN/EML4-ALK in human NCI-H3122 cells assessed as induction of EML4-ALK fusion protein degradation at 0.25 uM incubated for 16 hrs by Western blot analysis; type: cell-based
KARPAS-299 [30] = assay: Antiproliferative activity against ALK-positive human KARPAS-299 cells assessed as inhibition of cell proliferation measured after 72 hrs by MTT assay; type: functional, cell-based; conditions: KARPAS-299, 72 h
[31] = molecular target: T3, ALK tyrosine kinase receptor; assay: Inhibition of ALK phosphorylation in human KARPAS-299 cells at 1 uM incubated for 24 hrs followed by compound washout and measured after 72 hrs by Western blot analysis; type: cell-based
Target sequence in this assay (Q9UM73 19-1620 limits assumed): as above

[32] = molecular target: Signal transducer and activator of transcription 3 (Homo sapiens) (UniProt P40763); assay: Inhibition of STAT3 phosphorylation in human KARPAS-299 cells as 0.01 to 1 uM measured after 24 hrs by Western blot analysis; type: cell-based; conditions: dose 0.01-1 µM

Activity [1]: Active
Activity [2]: 83.6%
Cmax [3]: 109 ng/mL
AUC(0-t) at 24 h [7]: 146 ng·h/mL
half-life [14]: 25.2 min
CL/F [15]: 743 mL/min/kg
inhibition [16]: > 85%
inhibition [18]: Active
IC50 (NCI-H3122): 62 nM
MRT last at 24 h [21]: 596 min
IC50 [22]: 13600 nM
Activity [23]: Active
Vd [24]: 1685.67 L/kg
Activity [25]: 50.3%
Tmax [27]: 15 min
Activity [29]: Active
IC50 (KARPAS-299 [30]): 42 nM
inhibition [31]: Active
inhibition [32]: Active
SMILES: CCc1cc2c(cc1N1CCN(C(=O)CNc3cccc4c3C(=O)N(C3CCC(=O)NC3=O)C4=O)CC1)C(C)(C)c1[nH]c3cc(C#N)ccc3c1C2=O (stereo not drawn)
Activity (KARPAS-299 [4]): Active
viability at 1 µM (BaF3 [5]): 0.1%
Activity [6]: Non-Toxic
inhibition in vivo at 10 mg/kg (KARPAS-299 [8]): 75.8%
Activity (KARPAS-299 [9]): Active
Activity (KARPAS-299 [10]): Active
Activity (KARPAS-299 [11]): Active
Activity (KARPAS-299 [12]): Active
viability at 1 µM (BaF3 [13]): 6.1%
viability at 1 µM (BaF3 [17]): 77.6%
Activity (KARPAS-299 [19]): Active
Activity [20]: >85%
Activity (KARPAS-299 [26]): Active
Activity [28]: Non-Toxic
